Where two headings read alike, the source gives them in different places. Ends that are not written are not given here.

In assay [1] the test system is hyperphagic obese mice. The conditions noted are these: cited from earlier work.
For assay [2], the system named is ovariectomized rats pretreated with estradiol benzoate plus progesterone. The assay can be described thus: Food intake and ingestive behavior after two ivt injections, Example 1. The assay is classed as in vivo, rat. The protocol:
Adult female rats (CRL:CD® (SD)BR, Charles River Breeding Labs, Wilmington, MA) were maintained in individual wire bottom cages under controlled temperature and light (lights on 0500-1900 h) with ad libitum access to food and water. Rats were ovariectomized and permanent cannulae were implanted in the third cerebral ventricle under pentobarbital anesthesia (40 mg/kg, […]). Eleven to 13 days after surgery, rats were treated with estradiol benzoate (30 μg in 0.1 ml sesame oil, sc) and progesterone (15 mg in 0.3 ml sesame oil, sc). Two days later […], food and water were removed and patency of the ivt cannula was checked by observing efflux of cerebrospinal fluid. […] Immediately after the ivt injections, rats were returned to their home cages which contained a known amount of rat chow and observed for 60 min. The behavior was recorded in 5 mutually exclusive categories: eating, grooming, locomotion, resting and other [Blundell, Bio-grammar of Feeding: Pharmacological Manipulations and Their Interpretations. In: Cooper, S. J. (ed) Theory in Psychopharmacology, Academic Press, N.Y., Vol. I: 233 (1981)] the following measurements were derived; total food intake (g); latency to feeding response (min); duration of time spent eating (min); number of eating bouts (n); duration of eating bouts (min) and local eating rate (g/min). Local eating rate is a measure of amount of food consumed per unit time spent eating.
Although no attempt was made to quantify the water intake, the latency to drinking and amount of time spent on drinking were monitored.
The number of animals feeding and drinking after peptide treatment were compared with saline-treated rats by the Fisher exact probability test. Parameters of ingestive behavior of controls vs. peptide treated groups were analyzed by the Mann-Whitney U test. Comparisons within groups of parameters after the first and second injections were made with the Wilcoxon matched pairs - signed rank test.
(*=P<0.05; **=P<0.01, Mann-Whitney U tests; a=p<0.05; b=P<0.025; c=P<0.005, Fisher Exact Probability Test) and S=saline.

The test system of assay [3] is estradiol benzoate-progesterone-treated ovariectomized rats. As to the kind of experiment: Ingestive behavior noticed after ivt hPP during LH release studies. The assay is classed as in vivo, rat. The following applies: intraventricular (ivt) administration. The text has this: 251; Morley et al (1973), Neurosci. Biobehav. Revs. 7: 281]. Recently, Tatemoto, Proc. Natl. Acad. Sci. USA. […] The detailed distribution pattern of neurons displaying NPY-like immunoreactivity in the rat brain has been described [Allen et al (1983), Science 221:877; Allen et al (1983), 13th Ann. Mtg. Soc. Neurosci. 9:291 (Abstr.); O'Donohue et al (1983), 13th Ann. Mtg. Soc. Neurosci. 9:290 (Abstr.)]. The physiological significance of NPY-like immunoreactivity in the rat brain is presently unknown.

Assay [4] relates to normal adult male rats. The assay can be described thus: Food intake after NPY and RPP by the Example 1 procedure, Example 3. The assay is classed as in vivo, rat.
The conditions of assay [5]: intravenous administration, Konturek et al; cited from earlier work.
Where [6] appears, read: hyperphagic obese mice, Malaisse et al.
Where [7] appears, read: obese mice, intravenous, Zipf et al.
Setting [8] is: 2 or 10 μg ivt, after second injection, P<0.02.

Regarding “bovine pancreatic polypeptide [bovine PP]”, in assay [1] (setting [6]), the body weight gain result is “suppressed body weight gain” and the food intake entry is recorded as “reduced food intake”. In addition, in assay [1] (setting [7]), the food intake result was “decrease of food intake” and the weight gain entry is recorded as “decrease in weight gain”.
With “human pancreatic polypeptide (APLEPVYPGDNATPEQMAQYAADLRRYINMLTRPRY; ends and bridges not checked; UniProt P01298 30-65, looked up) [hPP, human pancreatic polypeptide, straight-chain 36 amino acid residues; from Boehringer Mannheim]”, the “rats that ate after the first injection” value in assay [2] (2 μg ivt) is 4/6. Besides, in assay [2] (10 μg ivt), the “rats in which the drinking response preceded the feeding response” value is reported as 3/7 and the “rats that ate after the first injection” value is given as 5/7. For the same molecule, in assay [2] (setting [8]), the “amount of time spent drinking” value was “only the higher does of hPP produced a similar response” and the “number of animals drinking” value is recorded as “only the higher does of hPP produced a similar response”. Moreover, the cumulative food intake result in assay [2] (2 or 10 μg ivt, compared with saline treated control rats) is “stimulated cumulative food intake”. For the same molecule, in assay [2] (ivt), the “number of rats grooming during the observation periods” value was “Neither peptide altered the number of rats grooming”. In addition, the ingestive behavior result in assay [3] is reported as “enhanced ingestive behavior”.
Regarding “rat pancreatic polypeptide (APLEPMYPGDYATHEQRAQYETQLRRYINTLTRPRY; ends and bridges not checked; UniProt P06303 30-65, looked up) [RPP, rat pancreatic polypeptide, member of the vertebrate pancreatic polypeptides (Pancreatic Hormone III)]”, the cumulative food intake result in assay [4] is “enhanced cumulative food intake which is dose-dependent”.
Regarding `NC(=O)[C@@H]1CCCN1C(=O)[C@H](Cc1cnc[nH]1)NC(=O)[C@@H]1CCC(=O)N1` [TRH, p-Glu-His-Pro-NH2], in assay [5], the food intake entry is “suppressed food intake”.

Values taken from patent US4701441A, “Methods and compositions for stimulation of appetite” (University of Florida, priority 1985, dated 1987).
